Patent US7494987B2, “Agent for treating respiratory diseases containing 4-hydroxypiperidine derivative as active ingredient” (priority 2002, dated 2009)
One block for each compound: values may come before it.

Key:
[1] = tested on: Citric Acid-Induced Cough Reflex in Guinea Pigs; assay: Inhibitory effect on citric acid-induced cough reflex in guinea pigs (Experimental Example 1-1, plethysmograph); format: in vivo; conditions: oral, 30 mg/kg, cough measured 1 hr after treatment
Method: Guinea pigs were fasted overnight. They were fixed to a plethysmograph, and then the change of inner pressure in the plethysmograph (body side) was recorded on an ink-recording paper (Nihon Kohden Corporation; WI-642G) via the differential pressure transducer (Nihon Kohden Corporation; TP-602T) and the respiration amplifier (Nihon Kohden Corporation; AR-601G). Using a nebulizer (OMRON Corporation; NE-U12), 20 W/V % citric acid solution was sprayed into the plethysmograph (head side) for 2 min (about 1 mL/min). The number of cough response for 15 min after the spray was measured.
(§1) The cough response was measured 3 hrs before and 1 hr after oral treatment. The test compound was not administered to the guinea pigs showing 5 coughs response or less before the treatment. The ratio of cough response between before and after the treatment (Post/Pre×100) was calculated, and the percent inhibition of the test compound on cough reflex induced by citric acid was determined according to the following formula: [(CRRcontrol−CRRtest)/(CRRcontrol)]×100 (%) • CRRcontrol: Ratio (%) of cough response in the control group • CRRtest: Ratio (%) of cough response in the compound-treated group

[2] = tested on: Wistar Hannover female rats; assay: Toxicological study, 14-day repeated oral dose in rats; format: in vivo; conditions: 400 mg/kg/day once daily for 14 days
Method: The compound of Example 26 was orally given to 6-week-old Wistar Hannover female rats at 400 mg/kg/day once daily for 14 days.

male rhesus monkeys [3] = assay: Toxicological study, 14-day repeated oral dose in rhesus monkeys; format: in vivo
Method: The compound of Example 36 or Example 26 was orally given to 3-year-old male rhesus monkeys at 20 mg/kg/day or 40 mg/kg/day, respectively, once daily for 14 days.

male rhesus monkeys [4] = assay: Holter ECG test in rhesus monkeys; format: in vivo; conditions: oral, 4-year-old male rhesus monkeys
Method: In Holter ECG test, the compound of Example 36 or Example 26 was orally given to 4-year-old male rhesus monkeys at 40 mg/kg and 80 mg/kg, respectively.

[5] = Pharmacokinetics, time-course of plasma concentration after single oral treatment; format: in vivo, rhesus monkeys; conditions: for bioavailability: 3- or 4-year-old male rhesus monkeys; for area under the plasma concentration-time curve (AUC), dependence on dose / maximum plasma concentration (Cmax), dependence on dose / relationship between the dose and the plasma concentration: rhesus monkeys
Text: The compound of Example 36 or Example 26 was studied about time-course of plasma concentration after single oral treatment to 3- or 4-year-old male rhesus monkeys. […] The relationship between the dose and the plasma concentration was linear. […] Therefore, it can be considered that these compounds are unlikely to be metabolized by first pass effect.

[6] = tested on: human drug-metabolizing enzymes; assay: Inhibitory effect on human drug-metabolizing enzymes; format: in vitro ADME
[7] = tested on: liver microsomes and hepatocytes of humans; assay: Metabolic stability in liver microsomes and hepatocytes, humans; format: in vitro ADME
[8] = tested on: liver microsomes and hepatocytes of monkeys; assay: Metabolic stability in liver microsomes and hepatocytes, monkeys; format: in vitro ADME
[9] = tested on: liver microsomes and hepatocytes of dogs; assay: Metabolic stability in liver microsomes and hepatocytes, dogs; format: in vitro ADME
[10] = tested on: liver microsomes and hepatocytes of rats; assay: Metabolic stability in liver microsomes and hepatocytes, rats; format: in vitro ADME
[11] = tested on: Citric Acid-Induced Cough Reflex in Guinea Pigs; assay: Inhibitory action on citric acid-induced cough reflex in guinea pigs (Experimental Example 1-2, nasal inhalation-exposure apparatus); format: in vivo; conditions: oral, 30 mg/kg, cough measured 1 hr after treatment
Method: Guinea pigs were fasted overnight. They were fixed to an nasal inhalation-exposure apparatus for small animals (M.I.P.S. Co., Ltd.), and then 20 W/V % citric acid solution was sprayed into the plethysmograph for 2 min (about 1 mL/min) using a nebulizer (M.I.P.S. Co., Ltd.). The number of cough response for 15 min after the spray was measured.
as §1, with “5 cough responses” for “5 coughs response”, “compound-treated group.” for “compound-treated group”

[12] = tested on: Wistar Hannover female rats; assay: Toxicological study, oral dose in rats; format: in vivo; conditions: 40 mg/kg, 6-week-old rats
Method: The compound of Example 36 was orally given to 6-week-old Wistar Hannover female rats at 40 mg/kg.

[13] = 40 mg/kg/day once daily for 14 days
[14] = 20 mg/kg/day once daily for 14 days

SMILES: CN(CC1(O)CCN(CCc2ccc(C#N)cc2)CC1)c1ccc(C(=O)O)cc1.Cl [Example 26, 4-({1-[2-(4-cyanophenyl)ethyl]-4-hydroxypiperidin-4-ylmethyl}methylamino)benzoic acid monohydrochloride]
- Percent inhibition on cough reflex [1]: 59%
- abnormality in general behaviors, weight gains, and food consumptions [2]: no abnormality
- findings in hematological and biochemical examinations, organ weights and histopathological tests [2]: No abnormal findings
- survival until 24 hours after the final treatment [2]: survived
- abnormality in weight gains and general behaviors (male rhesus monkeys [3]; [13]): no abnormality
- findings in hematological and biochemical examinations, organ weights and histopathological tests (male rhesus monkeys [3]; [13]): No apparent toxicological findings
- survival until 24 hours after the final treatment (male rhesus monkeys [3]; [13]): survived
- effect on electrocardiogram (male rhesus monkeys [4]; 80 mg/kg): no effect
- bioavailability [5]: high
- area under the plasma concentration-time curve (AUC), dependence on dose [5]: increased almost in proportion to the doses
- maximum plasma concentration (Cmax), dependence on dose [5]: increased almost in proportion to the doses
- relationship between the dose and the plasma concentration [5]: linear
- inhibitory effect on human drug-metabolizing enzymes [6]: almost no inhibitory effect
- metabolic stability in liver microsomes and hepatocytes [7]: metabolically stable
- metabolic stability in liver microsomes and hepatocytes [8]: metabolically stable
- metabolic stability in liver microsomes and hepatocytes [9]: metabolically stable
- metabolic stability in liver microsomes and hepatocytes [10]: metabolically stable

- melting point: 235.1 to 246.9 °C
SMILES: CN(CC1(O)CCN(CCc2ccc(C(F)(F)F)cc2)CC1)c1ccc(C(=O)O)cc1.Cl [Example 35, 4-({4-hydroxy-1-[2-(4-trifluoromethylphenyl)ethyl]piperidin-4-ylmethyl}methylamino)benzoic acid monohydrochloride]
- Percent inhibition on cough reflex [11]: 43%

SMILES: Cl.N#Cc1ccc(CCN2CCC(O)(COc3ccc(C(=O)O)cc3)CC2)cc1 [Example 36, 4-{1-[2-(4-cyanophenyl)ethyl]-4-hydroxypiperidin-4-ylmethoxy}benzoic acid monohydrochloride]
- abnormality in general behaviors [12]: no abnormality
- survival during the examination period [12]: survived
- abnormality in weight gains and general behaviors (male rhesus monkeys [3]; [14]): no abnormality
- findings in hematological and biochemical examinations, organ weights and histopathological tests (male rhesus monkeys [3]; [14]): No apparent toxicological findings
- survival until 24 hours after the final treatment (male rhesus monkeys [3]; [14]): survived
- effect on electrocardiogram (male rhesus monkeys [4]; 40 mg/kg): no effect
- bioavailability [5]: high
- area under the plasma concentration-time curve (AUC), dependence on dose [5]: increased almost in proportion to the doses
- maximum plasma concentration (Cmax), dependence on dose [5]: increased almost in proportion to the doses
- relationship between the dose and the plasma concentration [5]: linear
- inhibitory effect on human drug-metabolizing enzymes [6]: almost no inhibitory effect
- metabolic stability in liver microsomes and hepatocytes [7]: metabolically stable
- metabolic stability in liver microsomes and hepatocytes [8]: metabolically stable
- metabolic stability in liver microsomes and hepatocytes [9]: metabolically stable
- metabolic stability in liver microsomes and hepatocytes [10]: metabolically stable
